Legend:
Th1 cells (3DO.54.8) = test: Proliferation of Th1 cells; assay type: cell-based; settings: anti-CD3 Ab 10 μg/ml; 24 h
Experimental: Th1 cells (1×10^4 cells/well) were stimulated with anti-CD3 Ab (10 μg/ml) and different doses Caerulomycin A. After 24 h, [^3H]-thymidine was added, and its incorporation was measured 8 h later.

peritoneal macrophages = test: Expression of B7-1, B7-2, CD40 and IA^d on peritoneal macrophages by flow cytometry; assay type: cell-based, BALB/c mice
Experimental: The expression of B7-1 and B7-2 was detected on the surface of peritoneal macrophages incubated with different concentrations of Caerulomycin A (0.05-0.1 μg/ml). Peritoneal macrophages were harvested from BALB/c mice inoculated 4 days previously with 2-3 ml of thioglycolate. The cells were washed with BSS. The macrophages were obtained by adhering for 1 h at 37° C. on plastic Petri dishes followed by washing several times in cold BSS. The macrophages (1×10^6) were stimulated with 10 μg/ml of LPS for 24, 48 and 72 h in the presence and absence of Caerulomycin A (0.05-0.1 μg/ml) at 37° C. and 7% CO2. Then the cells were harvested and stained with their respective antibodies. Briefly, the cells were centrifuged (1200×g, 4° C., 5 min) and the supernatant was aspirated. The cells were washed 3× with 1% BSA, 0.1% sodium azide in PBS. In the first step, the cells (1×10^6) were incubated with biotinylated anti-mouse B7-1, CD40 and I-A^d (1 μg/100 μl) Abs for 45 min at 4° C. In the next step cells were stained with streptavidin FITC (0.5 μg/100 μl) or PE conjugated anti-mouse B7-2 (0.5 μg/100 μl) Abs and incubated for 45 min. Usual steps of washing were followed at each step. Finally the cells were washed five times and fixed in paraformaldehyde. The stained cells were acquired on a FACScan as mentioned for CD28/CTLA-4. Since the antigen presenting cells express B7-1 and B7-2, which are the ligands of CTLA-4 and CD28. […] The expression of IA^d was detected on the surface of peritoneal macrophages incubated with different concentrations of Caerulomycin A (0.05-0.1 μg/ml). Peritoneal macrophages were harvested from BALB/c mice inoculated 4 days previously with 2-3 ml of thioglycolate. The cells were washed with BSS. The macrophages were obtained by adhering for 1 h at 37° C. on plastic Petri dishes followed by washing several times in cold BSS. The macrophages (1×10^6) were stimulated with 10 μg/ml of LPS for 24, 48 and 72 h in the presence and absence of Caerulomycin A (0.05-0.1 μg/ml) at 37° C. and 7% CO2. Then the cells were harvested and stained with their respective antibodies. Briefly, the cells were centrifuged (1200×g, 4° C., 5 min) and the supernatant was aspirated. The cells were washed 3× with 1% BSA, 0.1% sodium azide in PBS. In the first step, the cells (1×10^6) were incubated with biotinylated anti-mouse I-A^d (1 μg/100 μl) Abs for 45 min at 4° C. In the next step cells were stained with streptavidin FITC (0.5 μg/100 μl) and incubated for 45 min. Usual steps of washing were followed at each step. Finally the cells were washed five times and fixed in paraformaldehyde. The stained cells were acquired on a FACScan as mentioned for CD28/CTLA-4. […] This may indicate that Caerulomycin A may inhibit the processing and presentation of antigen by APC.

[1] = LPS 10 μg/ml, Caerulomycin A 0.05-0.1 μg/ml

COc1cc(/C=N/O)nc(-c2ccccn2)c1 [Caerulomycin A, (E)-4-methoxy-2,2′-bipyridine-6-carbaldehyde oxime]
proliferation of Th1 cells (Th1 cells (3DO.54.8)): inhibited the proliferation
display of B7-2 (peritoneal macrophages; [1]): decreased the display
expression of B7-1 (peritoneal macrophages; [1]): enhanced the expression
expression of IA^d (peritoneal macrophages; [1]): down regulated the expression
expression of CD40 (peritoneal macrophages; after 72 h): Slight increase in the expression

From patent US8114895B2, “Use of bipyridine compound ‘Caerulomycin A’ derivatives and analogs thereof as immunosuppressive agents” (Council of Science and Industrial Research, priority 2005, dated 2012)
